From US12331024B2, “Substituted naphthyl P38alpha mitogen-activated protein kinase inhibitors” (GEN1E LIFESCIENCES INC., priority 2021, dated 2025)

Key:
Type in all cases: in vivo
[1] = Pharmacokinetics, mouse study: plasma AUCinf of metabolites after dosing Compound (4); details: female CD-1 mice, single intraperitoneal dose of 1 mg/mouse of Compound (4), metabolite AUCinf relative to Compound (4)
Experimental: (§1) The pharmacokinetics of Compounds (1)-(4) was determined in mice, rats, and monkeys.
Female CD-1 mice (n=9) received a single intraperitoneal dose of 1 mg/mouse of Compound (4). The dosing formulation was prepared prior to dose, with 2 mg/mL of Compound (4) in 4% DMSO and 96% PBS. Blood samples were collected from the mice at designated timepoints. Following collection, samples were centrifuged (2500 rpm for 10 minutes at 4° C.) and the resulting plasma was recovered and stored frozen (−60° C.).
Bioanalysis of the plasma samples was performed for Compounds (1)-(4). Mouse plasma samples were extracted by protein precipitation and analyzed by UPLC-MSMS using a Waters UPLC and API 5000® triple quadrupole mass spectrometer (AB Sciex, Toronto, Canada) with a Waters Acquity® UPLC BEH C18 column (50 mm×2.1 mm, 1.7 μm particle size). Acquisition and chromatographic peak integration were performed using Analyst® 1.7 Software. The standard curve regression and quantification of analytes in the samples was performed using the Analyst® Software.
Pharmacokinetic parameters were calculated based on the plasma concentration data for Compound (4) and the metabolites Compound (1)-(3) by non-compartmental methods using WinNonlin® Software, version 8.1 (Certara®, Inc). The area under the concentration time curve (AUCinf) was calculated for Compounds (1)-(4). The percent AUCinf (% AUCinf) for each metabolite was calculated as the ratio of the AUCinf for each respective metabolite divided by the AUCinf for Compound (4).

[2] = Pharmacokinetics, monkey study: plasma AUCinf of metabolites after dosing Compound (4); details: male cynomolgus monkeys, single 2 hour intravenous infusion of 5 mg/kg Compound (4), metabolite AUCinf relative to Compound (4)
Experimental: as §1
Male cynomolgus monkeys (n=3) received a single intravenous infusion over a period of 2 hours at a dose of 5 mg/kg Compound (4) (2.5 mL/kg/hour). The dosing formulation was prepared prior to dose, with 1 mg/mL of Compound (4) in 14% sulphobutylether-β-cyclodextrin (SBECD) in deionized water (w/v). Blood samples were collected from each monkey at designated timepoints. Following collection, the samples were centrifuged (2500 rpm for 10 minutes at 4° C.) and the resulting plasma was recovered and stored frozen (−60° C.).
Bioanalysis of samples was performed for Compounds (1)-(4). The monkey plasma samples were extracted by protein precipitation and analyzed by UPLC-MSMS using a Waters UPLC and API 5000® triple quadrupole mass spectrometer (AB Sciex, Toronto, Canada) with an ACE® Excel® 2 C18 column (50 mm×3.0 mm, 2 μm particle size) or a Waters Acquity® UPLC BEH C18 column (50 mm×2.1 mm, 1.7 μm). Acquisition and chromatographic peak integration were performed using Analyst® Software, version 1.6.3. The standard curve regression and quantification of analytes in the samples was performed using Watson LIMS® Software, version 7.4.1 (Thermo Fisher Scientific, Philadelphia, USA) or the Analyst® Software.
Pharmacokinetic parameters were calculated from plasma concentration data for Compound (4) and its metabolites by non-compartmental methods using WinNonlin® Software, version 8.1 (Certara®, Inc). The area under the concentration time curve (AUCinf) was calculated for Compounds (1)-(4). The percent AUCinf for each of the metabolites was calculated as the ratio of the AUCinf of each respective metabolite divided by the AUCinf of Compound (4).

[3] = Pharmacokinetics, rat study: plasma AUCinf of metabolites after dosing Compound (4); details: male Sprague-Dawley rats, single intravenous bolus dose of 10 mg/kg Compound (4), metabolite AUCinf relative to Compound (4)
Experimental: as §1
Male Sprague-Dawley rats (n=3) received a single intravenous bolus dose of 10 mg/kg Compound (4). The dosing formulation was prepared by prior to dosing, with 5 mg/mL of Compound (4) in 14% sulphobutylether-β-cyclodextrin (SBECD) in deionized water (w/v). Blood samples were collected from each rat at designated timepoints. Following collection, the samples were centrifuged (2500 rpm for 10 minutes at approximately 4° C.) and the resulting plasma was recovered and stored frozen (−60° C.).
Bioanalysis of the samples was performed for Compounds (1)-(4). Rat plasma samples were extracted by protein precipitation and analyzed by UPLC-MSMS using a Waters UPLC and API 5000® triple quadrupole mass spectrometer (AB Sciex, Toronto, Canada) with a Waters Acquity® UPLC BEH C18 column (50 mm×2.1 mm, 1.7 μm particle size). Acquisition and chromatographic peak integration were performed using Analyst® 1.7 Software. The standard curve regression and quantification of analytes in the samples was performed using the Analyst® Software.
Pharmacokinetic parameters were calculated from the plasma concentration data for Compound (4) and the metabolites Compounds (1)-(3) by non-compartmental methods using WinNonlin® Software, version 8.1 (Certara®, Inc). The area under the concentration time curve (AUCinf) was calculated for Compounds (1)-(4). The percent AUCinf for the metabolites was calculated as the ratio of the AUCinf for each respective metabolite divided by the AUCinf for Compound (4).

For `CNc1cccc2c(S(=O)(=O)Nc3ccc(CN4CCOCC4)cc3)cccc12` [Compound (1), 5-(methylamino)-N-(4-(morpholinomethyl)phenyl)naphthalene-1-sulfonamide], the “% AUCinf (100×AUCmetabolite/AUCCompound(4))” value [1] was 31%, the “% AUCinf (100×AUCmetabolite/AUCCompound(4))” value [2] was 64% and the “% AUCinf (100×AUCmetabolite/AUCCompound(4))” value [3] was 9%.
For `CNc1cccc2c(S(=O)(=O)Nc3ccc(CN4CCOCC4=O)cc3)cccc12` [Compound (2), 5-(methylamino)-N-(4-((3-oxomorpholino)methyl)phenyl)naphthalene-1-sulfonamide], the “% AUCinf (100×AUCmetabolite/AUCCompound(4))” value [1] was 10%, the “% AUCinf (100×AUCmetabolite/AUCCompound(4))” value [2] was 132% and the “% AUCinf (100×AUCmetabolite/AUCCompound(4))” value [3] was 48%.
For `CN(C)c1cccc2c(S(=O)(=O)Nc3ccc(CN4CCOCC4=O)cc3)cccc12` [Compound (3), 5-(dimethylamino)-N-(4-((3-oxomorpholino)methyl)phenyl)naphthalene-1-sulfonamide], the “% AUCinf (100×AUCmetabolite/AUCCompound(4))” value [1] was 9%, the “% AUCinf (100×AUCmetabolite/AUCCompound(4))” value [2] was 7% and the “% AUCinf (100×AUCmetabolite/AUCCompound(4))” value [3] was 11%.
